Results: patent US9597310B2, “Indanyloxydihydrobenzofuranylacetic acids” (Boehringer Ingelheim International GmbH, priority 2012, dated 2017)

What follows are compounds tested against human GPR40 receptor (Homo sapiens (Human), UniProt O14842) (assay: IP1 accumulation measurements using the IPOne assay system). Details: 1321N1 cells stably expressing human GPR40 receptor, 1 h stimulation.
Type: cell-based
Protocol: IP1 accumulation measurements using the IPOne assay system—1321N1 cells stably expressing human GPR40 receptor (Euroscreen, Belgium) are seeded 24 h before the assay in white 384-well plates in culture medium containing 10% FCS, 1% Na-Pyruvate and 400 μg/mL G418. IP1 is assayed according to the manufacturer's description (Cisbio Bioassays, France). In brief, the assay is started by substitution of the culture medium by stimulation buffer (Hepes 10 mM, CaCl2 1 mM, MgCl2 0.5 mM, KCl 4.2 mM, NaCl 146 mM, glucose 5.5 mM and LiCl 50 mM, pH 7.4). Cells are stimulated for 1 h at 37° C., 5% CO2 by addition of the compounds that are diluted in stimulation buffer containing LiCl. Assays are stopped by adding HTRF-conjugates (IP1-d2 and Anti-IP1 cryptate Tb) and lysis buffer, provided by the manufacturer. After an incubation time of 1 h at room temperature plates are measured using an EnVision™, Perkin Elmer. The obtained fluorescence ratios at 665/615 […] are then used to calculate the pEC50 values using Assay Explorer 3.3 Software (Accelrys, Inc.) by interpolation using an IP1 reference curve and subsequent sigmoidal curve fitting allowing for a variable hill slope.

Sequence of human GPR40 receptor (O14842 whole entry): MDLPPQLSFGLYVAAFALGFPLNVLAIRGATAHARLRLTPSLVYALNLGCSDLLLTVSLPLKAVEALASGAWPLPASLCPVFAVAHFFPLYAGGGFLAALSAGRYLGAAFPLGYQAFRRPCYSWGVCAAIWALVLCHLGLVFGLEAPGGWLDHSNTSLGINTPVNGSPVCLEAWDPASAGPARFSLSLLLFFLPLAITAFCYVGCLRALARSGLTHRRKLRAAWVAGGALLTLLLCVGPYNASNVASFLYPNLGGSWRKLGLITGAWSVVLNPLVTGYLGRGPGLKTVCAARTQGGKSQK

Structure (SMILES) | EC50 [nM]
CS(=O)(=O)CCCOc1ccc(Oc2ccc(F)c3c2CC[C@H]3Oc2ccc3c(c2)OC[C@H]3CC(=O)O)cc1 [Example 4, [(S)-6-{(R)-7-Fluoro-4-[4-(3-methanesulfonyl-propoxy)-phenoxy]-indan-1-yloxy}-2,3-dihydro-benzofuran-3-yl)-acetic acid] | 15
O=C(O)C[C@@H]1COc2cc(O[C@@H]3CCc4c(Oc5ccc(CN6CCOCC6)cc5)ccc(F)c43)ccc21 [Example 5, {(S)-6-[(R)-7-Fluoro-4-(4-morpholin-4-ylmethyl-phenoxy)-indan-1-yloxy]-2,3-dihydro-benzofuran-3-yl}-acetic acid] | 25
CC(=O)NCc1cccc(Oc2ccc(F)c3c2CC[C@H]3Oc2ccc3c(c2)OC[C@H]3CC(=O)O)c1 [Example 7, [(S)-6-{(R)-4-[3-(Acetylamino-methyl)-phenoxy]-7-fluoro-indan-1-yloxy}-2,3-dihydro-benzofuran-3-yl]-acetic acid] | 55
CC(=O)Nc1ccc(Oc2ccc(F)c3c2CC[C@H]3Oc2ccc3c(c2)OC[C@H]3CC(=O)O)cc1 [Example 8, {(S)-6-[(R)-4-(4-Acetylamino-phenoxy)-7-fluoro-indan-1-yloxy]-2,3-dihydro-benzofuran-3-yl}-acetic acid] | 34
O=C(O)C[C@@H]1COc2cc(O[C@@H]3CCc4c(Oc5ccc(-n6ccnc6)cc5)ccc(F)c43)ccc21 [Example 10, {(S)-6-[(R)-7-Fluoro-4-(4-imidazol-1-yl-phenoxy)-indan-1-yloxy]-2,3-dihydro-benzofuran-3-yl}-acetic acid] | 11
O=C(O)C[C@@H]1COc2cc(O[C@@H]3CCc4c(Oc5ccc(-c6nnn[nH]6)cc5)ccc(F)c43)ccc21 [Example 13, [(S)-6-{(R)-7-Fluoro-4-[4-(1H-tetrazol-5-yl)-phenoxy]-indan-1-yloxy}-2,3-dihydro-benzofuran-3-yl]-acetic acid] | 282
Cn1nnnc1-c1ccc(Oc2ccc(F)c3c2CC[C@H]3Oc2ccc3c(c2)OC[C@H]3CC(=O)O)cc1 [Example 14, [(S)-6-{(R)-7-Fluoro-4-[4-(1-methyl-1H-tetrazol-5-yl)-phenoxy]-indan-1-yloxy}-2,3-dihydro-benzofuran-3-yl]-acetic acid] | 23
Cn1nnc(-c2ccc(Oc3ccc(F)c4c3CC[C@H]4Oc3ccc4c(c3)OC[C@H]4CC(=O)O)cc2)n1 [Example 15, [(S)-6-{(R)-7-Fluoro-4-[4-(2-methyl-2H-tetrazol-5-yl)-phenoxy]-indan-1-yloxy}-2,3-dihydro-benzofuran-3-yl]-acetic acid] | 3
O=C(O)C[C@@H]1COc2cc(O[C@@H]3CCc4c(Oc5ccnc(O[C@H]6CCOC6)c5)ccc(F)c43)ccc21 [Example 16, {(S)-6-[(R)-7-fluoro-4-{2-[(S)-tetrahydro-furan-3-yloxy]-pyridin-4-yloxy}-indan-1-yloxy]-2,3-dihydro-benzofuran-3-yl}-acetic acid] | 9
CC(C)(O)CCOc1ccc(Oc2ccc(F)c3c2CC[C@H]3Oc2ccc3c(c2)OC[C@H]3CC(=O)O)nc1 [Example 17, [(S)-6-{(R)-7-Fluoro-4-[5-(3-hydroxy-3-methyl-butoxy)-pyridin-2-yloxy]-indan-1-yloxy}-2,3-dihydro-benzofuran-3-yl]-acetic acid] | 23
O=C(O)C[C@@H]1COc2cc(O[C@@H]3CCc4c(Oc5ccc(O[C@H]6CCOC6)cn5)ccc(F)c43)ccc21 [Example 18, {(S)-6-[(R)-7-Fluoro-4-{5-[(S)-tetrahydro-furan-3-yloxy}-pyridin-2-yloxy}-indan-1-yloxy]-2,3-dihydro-benzofuran-3-yl}-acetic acid] | 31
CS(=O)(=O)CCCOc1c(F)cc(Oc2ccc(F)c3c2CC[C@H]3Oc2ccc3c(c2)OC[C@H]3CC(=O)O)cc1F [Example 19, [(S)-6-{(R)-4-[3,5-Difluoro-4-(3-methanesulfonyl-propoxy)-phenoxy]-7-fluoro-indan-1-yloxy}-2,3-dihydro-benzofuran-3-yl]-acetic acid] | 12
CC(C)(O)Cn1cc(-c2c(F)cc(Oc3ccc(F)c4c3CC[C@H]4Oc3ccc4c(c3)OC[C@H]4CC(=O)O)cc2F)cn1 [Example 20, {(S)-6-[(R)-4-{3,5-Difluoro-4-[1-(2-hydroxy-2-methyl-propyl)-1H-pyrazol-4-yl]-phenoxy}-7-fluoro-indan-1-yloxy]-2,3-dihydro-benzofuran-3-yl}-acetic acid] | 7
O=C(O)C[C@@H]1COc2cc(O[C@@H]3CCc4c(Oc5ccc(-c6nccs6)cc5)ccc(F)c43)ccc21 [Example 21, {(S)-6-[(R)-7-Fluoro-4-(4-thiazol-2-yl-phenoxy)-indan-1-yloxy]-2,3-dihydro-benzofuran-3-yl}-acetic acid] | 6
Cc1ncc(-c2ccc(Oc3ccc(F)c4c3CC[C@H]4Oc3ccc4c(c3)OC[C@H]4CC(=O)O)cc2)s1 [Example 22, [(S)-6-{(R)-7-Fluoro-4-[4-(2-methyl-thiazol-5-yl)-phenoxy]-indan-1-yloxy}-2,3-dihydro-benzofuran-3-yl]-acetic acid] | 5
CC(C)(O)CCCc1ccc(Oc2ccc(F)c3c2CC[C@H]3Oc2ccc3c(c2)OC[C@H]3CC(=O)O)nc1 [Example 23, [(S)-6-{(R)-7-Fluoro-4-[5-(4-hydroxy-4-methyl-pentyl)-pyridin-2-yloxy]-indan-1-yloxy}-2,3-dihydro-benzofuran-3-yl]-acetic acid] | 84
O=C(O)C[C@@H]1COc2cc(O[C@@H]3CCc4c(Oc5ccc6c(c5)NC(=O)CC6)ccc(F)c43)ccc21 [Example 24, {(S)-6-[(R)-7-Fluoro-4-(2-oxo-1,2,3,4-tetrahydroquinoline-7-yloxy)-indan-1-yloxy]-2,3-dihydrobenzofuran-3-yl}-acetic acid] | 10
O=C(O)C[C@@H]1COc2cc(O[C@@H]3CCc4c(Oc5ccc6c(c5)OCO6)ccc(F)c43)ccc21 [Example 25, {(S)-6-[(R)-4-(Benzo[d][1,3]dioxol-5-yloxy)-7-fluoro-indan-1-yloxy]-2,3-dihydrobenzofuran-3-yl}-acetic acid] | 6
O=C(O)C[C@@H]1COc2cc(O[C@@H]3CCc4c(Oc5ccc6c(c5)OCCO6)ccc(F)c43)ccc21 [Example 26, {(S)-6-[(R)-4-(2,3-Dihydrobenzo[b][1,4]dioxin-6-yloxy)-7-fluoro-indan-1-yloxy]-2,3-dihydrobenzofuran-3-yl}-acetic acid] | 6
O=C(O)C[C@@H]1COc2cc(O[C@@H]3CCc4c(Oc5ccc(C6CCOCC6)cc5)ccc(F)c43)ccc21 [Example 27, ((S)-6-{(R)-7-Fluoro-4-[4-(tetrahydro-2H-pyran-4-yl)phenoxy]-indan-1-yloxy}-2,3-dihydrobenzofuran-3-yl)-acetic acid] | 9
CC(C)(O)CCCc1ccc(Oc2ccc(F)c3c2CC[C@H]3Oc2ccc3c(c2)OC[C@H]3CC(=O)O)cc1 [Example 28, ((S)-6-{(R)-7-Fluoro-4-[4-(4-hydroxy-4-methylpentyl)phenoxy]-indan-1-yloxy}-2,3-dihydrobenzofuran-3-yl)-acetic acid] | 20
CC(C)(O)Cn1cc(-c2cc(F)c(Oc3ccc(F)c4c3CC[C@H]4Oc3ccc4c(c3)OC[C@H]4CC(=O)O)cc2F)cn1 [Example 29, [(S)-6-((R)-4-{2,5-Difluoro-4-[1-(2-hydroxy-2-methylpropyl)-1H-pyrazol-4-yl]phenoxy}-7-fluoro-indan-1-yloxy)-2,3-dihydrobenzofuran-3-yl]-acetic acid] | 12
